Patent US5830869A, “Thiadiazole amide MMP inhibitors” (priority 1997, dated 1998)

The compounds below were run against Stromelysin (Homo sapiens, UniProt P08254) (assay: Stromelysin inhibition, in vitro particle concentration fluorescence assay (TABLE 1, MMP Inhibition Constants)). Details: fluorescein/biotin substrate, MMP buffer pH 7.5, room temperature, 15 min preincubation with enzyme, 1-3 h with substrate.
Type: biochemical
Description: Inhibitory activity is evaluated in one or more of the MMP enzymes (stromelysin, gelatinase, and collagenase) in vitro using particle concentration fluorescence assay. An inhibitor binds to MMP enzymes which prevents the degradation of a substrate by stromelysin, gelatinase, or collagenase. The substrate has attached to it a fluorescein and a biotin moiety. The intact substrate then binds to an avidin-coated particle via the biotin moiety. Once the particle is washed and dried, a fluorescent signal is generated since the fluorescent group is attached to the particle. Without an inhibitor present, the substrate is degraded by MMP enzymes and the fluorescein group is removed, therefore, no fluorescent signal can be detected. Testing compounds are dissolved in DMSO to the desired concentration, then the solutions are diluted to 1:5 with MMP buffer (50 mM Tris-HCl, pH 7.5; 150 mM NaCl; 0.02% NaN3). Serial two-fold dilutions of each compound are prepared. A concentrated, activated enzyme solution is transferred into each plate of the testing compounds, and the mixture is incubated at room temperature for 15 minutes. Thawed MMP substrate is then added into all plates, and the plates are incubated in the dark for 1-3 hours at room temperature. At this point, the substrate mixture is mixed with 0.1% avidin-coated polystyrene particles. After 15 minutes, the fluorescence values are measured following filtration and washing of the beads. Ki values are then calculated.

Chain of Stromelysin (P08254 100-477): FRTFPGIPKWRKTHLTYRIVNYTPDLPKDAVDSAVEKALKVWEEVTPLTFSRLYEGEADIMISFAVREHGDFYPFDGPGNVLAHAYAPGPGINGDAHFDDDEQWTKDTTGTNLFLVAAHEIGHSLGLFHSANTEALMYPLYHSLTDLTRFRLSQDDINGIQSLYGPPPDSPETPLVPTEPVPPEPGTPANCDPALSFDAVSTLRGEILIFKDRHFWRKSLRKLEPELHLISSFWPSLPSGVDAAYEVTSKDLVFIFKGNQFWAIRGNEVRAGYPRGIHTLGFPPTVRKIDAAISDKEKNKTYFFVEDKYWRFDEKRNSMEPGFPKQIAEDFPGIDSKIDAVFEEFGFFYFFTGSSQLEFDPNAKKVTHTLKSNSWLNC

Compared with `CC(C)(C)OC(=O)N[C@@H](Cc1c(F)c(F)c(F)c(F)c1F)C(=O)Nc1n[nH]c(=S)s1` [Example 28, (S)-[2-[(4,5-dihydro-5-thioxo-1,3,4-thiadiazol-2-yl)amino]-2-oxo-1-[(pentafluorophenyl)methyl]ethyl]carbamic acid 1,1-dimethylethyl ester], `O=C(CCc1ccccc1)N[C@@H](Cc1c(F)c(F)c(F)c(F)c1F)C(=O)Nc1n[nH]c(=S)s1` [Example 30, (S)-α-N-(4,5-dihydro-5-thioxo-1,3,4-thiadiazol-2-yl)-2,3,4,5,6-pentafluoro-[(1-oxo-3-phenylpropyl)amino]benzenepropanamide] is 2.3-fold lower in Ki: 2.22 µM for the first, 0.97 µM for the second. The second binds more tightly here.

First: CC(C)(C)OC(=O)N1CCC[C@H]1C(=O)N[C@H](C(=O)Nc1n[nH]c(=S)s1)C(C)(C)C [Example 29, 1-[(1,1-dimethylethoxy)carbonyl]-L-prolyl-N-(4,5-dihydro-5-thioxo-1,3,4-thiadiazol-2-yl)-3-methyl-L-valinamide]
Second: CNC(=O)C(C(=O)Nc1n[nH]c(=S)s1)C(C)(C)C (stereo not drawn) [Example 59, N-methyl-α-[[(4,5-dihydro-5-thioxo-1,3,4-thiadiazol-2-yl)amino]carbonyl]-3,3-dimethylbutanamide]
The Ki of the first is 2.9-fold lower: 1.47 µM for the first, 4.3 µM for the second.

First: O=C(NCCC[C@H](NC(=O)OCc1ccccc1)C(=O)Nc1n[nH]c(=S)s1)OCc1ccccc1 [Example 31, (S)-[1-[[(4,5-dihydro-5-thioxo-1,3,4-thiadiazol-2-yl)amino]carbonyl]-1,4-butanediyl]bis carbamic acid bis(phenylmethyl) ester]
Second: O=C(N[C@@H](Cc1ccccc1)C(=O)Nc1n[nH]c(=S)s1)OCc1ccccc1 [Example 34, (S)-[2-[(4,5-dihydro-5-thioxo-1,3,4-thiadiazol-2-yl)amino]-2-oxo-1-(phenylmethyl)ethyl]carbamic acid phenylmethyl ester]
The Ki of the first is 2.2-fold lower: 2.81 µM for the first, 6.09 µM for the second. The first binds more tightly here.

First: CC(C)(C)[C@H](NC(=O)Cc1c[nH]c2ccccc12)C(=O)Nc1n[nH]c(=S)s1 [Example 32]
Second: O=C(N[C@@H](Cc1c[nH]c2ccccc12)C(=O)Nc1n[nH]c(=S)s1)OCc1ccccc1 [Example 33, (S)-[2-[(4,5-dihydro-5-thioxo-1,3,4-thiadiazol-2-yl)amino]-1-(1H-indol-3-yl-methyl)-2-oxoethyl]-carbamic acid, phenylmethyl ester]
The Ki of the first is 25-fold lower: 0.41 µM for the first, 10.2 µM for the second.

First: CC(C)C[C@H](NC(=O)OCc1ccccc1)C(=O)Nc1n[nH]c(=S)s1 [Example 35, (S)-[1-[[(4,5-dihydro-5-thioxo-1,3,4-thiadiazol-2-yl)amino]carbonyl]-3-methylbutyl]carbamic acid phenylmethyl ester]
Second: CC(C)[C@H](NC(=O)OCc1ccccc1)C(=O)Nc1n[nH]c(=S)s1 [Example 36, (S)-[1-[[(4,5-dihydro-5-thioxo-1,3,4-thiadiazol-2-yl)amino]carbonyl]-2-methylpropyl]carbamic acid phenylmethyl ester]
The Ki of the first is 1.9-fold higher: 2.22 µM for the first, 1.16 µM for the second.

First: CC(C)(C)[C@H](NC(=O)OCC1c2ccccc2-c2ccccc21)C(=O)Nc1n[nH]c(=S)s1 [Example 37, (S)-[1-[[(4,5-dihydro-5-thioxo-1,3,4-thiadiazol-2-yl)amino]carbonyl]-2,2-dimethylpropyl]carbamic acid 9H-fluoren-9-yl-methyl ester]
Second: O=C(CC(NC(=O)OCC1c2ccccc2-c2ccccc21)c1ccccc1)Nc1n[nH]c(=S)s1 (centres unmarked) [Example 46, [3-[(4,5-dihydro-5-thioxo-1,3,4-thiadiazol-2-yl)amino]-3-oxo-1-phenylpropyl]carbamic acid 9H-fluoren-9-yl methyl ester]
The Ki of the first is 3.7-fold lower: 0.12 µM for the first, 0.44 µM for the second.

Going from `O=C(NCC(C(=O)Nc1n[nH]c(=S)s1)c1ccccc1)OCc1ccccc1` (centres unmarked) [Example 38, [3-[(4,5-dihydro-5-thioxo-1,3,4-thiadiazol-2-yl)amino]-3-oxo-2-phenylpropyl]carbamic acid phenylmethyl ester] to `O=C(NCC(Cc1ccccc1)C(=O)Nc1n[nH]c(=S)s1)OCc1ccccc1` (centres unmarked) [Example 39, [3-[(4,5-dihydro-5-thioxo-1,3,4-thiadiazol-2-yl)amino]-3-oxo-2-(phenylmethyl)propyl]carbamic acid phenylmethyl ester], the Ki falls from 2.27 µM to 1.32 µM (1.7-fold).

First: CC(C)(C)C(CC(=O)Nc1n[nH]c(=S)s1)NC(=O)OCc1ccccc1 (centres unmarked) [Example 40, [3-[(4,5-dihydro-5-thioxo-1,3,4-thiadiazol-2-yl)amino]-3-oxo-1-(1,1-dimethylethyl)propyl]carbamic acid phenylmethyl ester]
Second: CC(C)C[C@@H](CC(=O)Nc1n[nH]c(=S)s1)NC(=O)OCc1ccccc1 [Example 54, (S)-[1-[2-[[4,5-dihydro-5-thioxo-1,3,4-thiadiazol-2-yl)amino]-2-oxoethyl]-3-methylbutyl]carbamic acid phenylmethyl ester]
The Ki of the first is 9.2-fold higher: 11.1 µM for the first, 1.2 µM for the second. The second binds more tightly here.

Going from `O=C(CC(NC(=O)OCc1ccccc1)c1ccccc1)Nc1nnc(S)s1` (centres unmarked) [Example 41, [3-[(4,5-dihydro-5-thioxo-1,3,4-thiadiazol-2-yl)amino]-3-oxo-1-phenylpropyl]carbamic acid phenylmethyl ester] to `O=C(C[C@H](NC(=O)OCc1ccccc1)c1ccccc1)Nc1n[nH]c(=S)s1` [Example 51, (S)-[3-[(4,5-dihydro-5-thioxo-1,3,4-thiadiazol-2-yl)amino]-3-oxo-1-phenylpropyl]carbamic acid phenylmethyl ester], the Ki rises from 0.4 µM to 1.5 µM (3.8-fold).

Compared with `O=C(CC(NC(=O)c1ccccc1)c1ccccc1)Nc1n[nH]c(=S)s1` (stereo not drawn) [Example 42, β-(benzoylamino)-N-(4,5-dihydro-5-thioxo-1,3,4-thiadiazol-2-yl)benzenepropanamide], `O=C(CC(NC(=O)Cc1ccccc1)c1ccccc1)Nc1n[nH]c(=S)s1` (stereo not drawn) [Example 43, N-(4,5-dihydro-5-thioxo-1,3,4-thiadiazol-2-yl)-β-[(phenylacetyl)amino]benzenepropanamide] is 2.1-fold lower in Ki: 1.36 µM for the first, 0.655 µM for the second.

`O=C(CC(NC(=O)CCc1ccccc1)c1ccccc1)Nc1n[nH]c(=S)s1` (centres unmarked) [Example 44] and `O=C(CC(NC(=O)COCc1ccccc1)c1ccccc1)Nc1n[nH]c(=S)s1` (stereo not drawn) [Example 49, N-(4,5-dihydro-5-thioxo-1,3,4-thiadiazol-2-yl)-β-[(phenylmethoxyacetyl)amino]benzenepropanamide] are within 1.5-fold of each other in Ki: 0.69 µM for the first, 0.84 µM for the second.

Compared with `CC(C)(C)OC(=O)NC(CC(=O)Nc1n[nH]c(=S)s1)c1ccccc1` (centres unmarked) [Example 45, [3-[(4,5-dihydro-5-thioxo-1,3,4-thiadiazol-2-yl)amino]-3-oxo-1-phenylpropyl]carbamic acid 1,1-dimethylethyl ester], `COCC(=O)NC(CC(=O)Nc1n[nH]c(=S)s1)c1ccccc1` (stereo not drawn) [Example 47, N-(4,5-dihydro-5-thioxo-1,3,4-thiadiazol-2-yl)-β-[(methoxyacetyl)amino]benzenepropanamide] is 1.9-fold higher in Ki: 0.72 µM for the first, 1.36 µM for the second. The first binds more tightly here.

`O=C(CC(NC(=O)COc1ccccc1)c1ccccc1)Nc1n[nH]c(=S)s1` (stereo not drawn) [Example 48, N-(4,5-dihydro-5-thioxo-1,3,4-thiadiazol-2-yl)-β-[(phenoxyacetyl)amino]benzenepropanamide] and `O=C(C[C@@H](NC(=O)OCc1ccccc1)c1ccccc1)Nc1n[nH]c(=S)s1` [Example 52, (R)-[3-[(4,5-dihydro-5-thioxo-1,3,4-thiadiazol-2-yl)amino]-3-oxo-1-phenylpropyl]carbamic acid phenylmethyl ester] are within 1.5-fold of each other in Ki: 0.313 µM for the first, 0.26 µM for the second.

Going from `O=C(N[C@H]1CCCC[C@H]1C(=O)Nc1n[nH]c(=S)s1)OCC1c2ccccc2-c2ccccc21` [Example 53, (1S-cis-)-[2-[[(4,5-dihydro-5-thioxo-1,3,4-thiadiazol-2-yl)amino]carbonyl]cyclohexyl]carbamic acid 9H-fluoren-9-yl-methyl ester] to `CCOC(=O)C(Cc1ccccc1)C(=O)Nc1n[nH]c(=S)s1` (stereo not drawn) [Example 57, ethyl α-[[(4,5-dihydro-5-thioxo-1,3,4-thiadiazol-2yl)amino]carbonyl]benzenepropanoate], the Ki falls from 15 µM to 4.05 µM (3.7-fold).

Compound `CCOC(=O)C(C(=O)Nc1n[nH]c(=S)s1)C(C)(C)C` (stereo not drawn) [Example 58, ethyl α-[[(4,5-dihydro-5-thioxo-1,3,4-thiadiazol-2-yl)amino]carbonyl]-3,3-dimethylbutanoate] has a Ki of 5 µM.
